Values of other authors, collected in US20120108429A1, “SAFENED AND EFFICACIOUS WEED CONTROL PARTICLE” (The Andersons, Inc., priority 2010, published 2012).

Tested on: pentas and hemerocallis
Conditions: application of the herbicide

C#CCN1C(=O)COc2cc(F)c(N3C(=O)C4=C(CCCC4)C3=O)cc21 [flumioxazin]
effect on growth of ornamental plants: inhibited from properly growing
